Reference: patent US9149038B2, “4-amino-6-(heterocyclic)picolinates and 6-amino-2-(heterocyclic)pyrimidine-4-carboxylates and their use as herbicides” (Dow AgroSciences LLC, priority 2013, dated 2015)
Like-named read-outs stand apart in the source and are kept apart here.

Tested on: Wheat and Barley and weed species
Test: Post-Emergent Test III: postemergent herbicidal activity in wheat and barley, visual rating after 21 d and probit GR20/GR50/GR80/GR90 (Tables 9-13)
Assay type: in vivo
Conditions: for pest or weed control at 17.5 g/ha / pest or weed control at 35 g/ha / pest or weed control at 70 g/ha: post-emergence, 504 h
In short: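 Greenhouse plants (~18/17 °C, 14 h photoperiod) at second–third true leaf stage sprayed at 187 L/ha with a high rate and ½× to 1/16× serial dilutions. Visual injury 0–100% versus solvent-blank controls scored at 21 d; GR20, GR50, GR80 and GR90 derived by probit analysis across rates.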

For `Nc1c(F)c(-c2ccc3c(c2F)OC(F)(F)O3)nc(C(=O)O)c1Cl` [Compound 11], the “GR50 ALOMY” value (ALOMY black-grass (Alopecurus myosuroides), growth reduction of 50%, probit analysis) was 41 g ai/ha, the “GR80 ALOMY” value (ALOMY black-grass (Alopecurus myosuroides), growth reduction of 80%, probit analysis) was over 70 g ai/ha and the “GR90 ALOMY” value (ALOMY black-grass (Alopecurus myosuroides), growth reduction of 90%, probit analysis) was over 70 g ai/ha. For the same molecule, the “GR50 APESV” value (APESV bentgrass (Apera spica-venti), growth reduction of 50%, probit analysis) was 25 g ai/ha, the “GR80 APESV” value (APESV bentgrass (Apera spica-venti), growth reduction of 80%, probit analysis) was 52 g ai/ha and the “GR90 APESV” value (APESV bentgrass (Apera spica-venti), growth reduction of 90%, probit analysis) was over 70 g ai/ha. For the same molecule, the “GR20 HORVS” value (HORVS barley, spring (crop), growth reduction of 20%, probit analysis) was 3 g ai/ha, the pest or weed control at 17.5 g/ha (Hordeum vulgare, HORVS barley, spring (crop), 17.5 g ai/ha, read-out: Visual Growth Reduction (%) 21 Days After Application HORVS) was 60 to 74% and the pest or weed control at 35 g/ha (Hordeum vulgare, HORVS barley, spring (crop), 35 g ai/ha, read-out: Visual Growth Reduction (%) 21 Days After Application HORVS) was 60 to 74%. For the same molecule, the pest or weed control at 70 g/ha (Hordeum vulgare, HORVS barley, spring (crop), 70 g ai/ha, read-out: Visual Growth Reduction (%) 21 Days After Application HORVS) was 85 to 94%, the “GR50 LOLSS” value (LOLSS ryegrass, growth reduction of 50%, probit analysis) was 31 g ai/ha and the “GR80 LOLSS” value (LOLSS ryegrass, growth reduction of 80%, probit analysis) was 62 g ai/ha. The “GR90 LOLSS” value (LOLSS ryegrass, growth reduction of 90%, probit analysis) was over 70 g ai/ha, the “Visual Growth Reduction (%) 21 Days After Application MATCH” value (MATCH wild chamomile (Matricaria recutita L.), 17.5 g ai/ha) was “G (0-29)” and the “Visual Growth Reduction (%) 21 Days After Application MATCH” value (MATCH wild chamomile (Matricaria recutita L.), 35 g ai/ha) was “F (30-44)”. The “Visual Growth Reduction (%) 21 Days After Application MATCH” value (MATCH wild chamomile (Matricaria recutita L.), 70 g ai/ha) was “E (45-59)”, the “GR50 MATCH” value (MATCH wild chamomile (Matricaria recutita L.), growth reduction of 50%, probit analysis) was 65 g ai/ha and the “GR80 MATCH” value (MATCH wild chamomile (Matricaria recutita L.), growth reduction of 80%, probit analysis) was over 70 g ai/ha. The “GR90 MATCH” value (MATCH wild chamomile (Matricaria recutita L.), growth reduction of 90%, probit analysis) was over 70 g ai/ha, the “GR50 SETVI” value (SETVI green foxtail (Setaria viridis), growth reduction of 50%, probit analysis) was 18 g ai/ha and the “GR80 SETVI” value (SETVI green foxtail (Setaria viridis), growth reduction of 80%, probit analysis) was 37 g ai/ha. For the same molecule, the “GR90 SETVI” value (SETVI green foxtail (Setaria viridis), growth reduction of 90%, probit analysis) was 53 g ai/ha, the “GR20 TRZAS” value (TRZAS wheat, spring (crop), growth reduction of 20%, probit analysis) was 0.12 g ai/ha and the pest or weed control at 17.5 g/ha (Triticum aestivum, TRZAS wheat, spring (crop), 17.5 g ai/ha, read-out: Visual Growth Reduction (%) 21 Days After Application TRZAS) was 75 to 84%. The pest or weed control at 35 g/ha (Triticum aestivum, TRZAS wheat, spring (crop), 35 g ai/ha, read-out: Visual Growth Reduction (%) 21 Days After Application TRZAS) was 85 to 94%, the pest or weed control at 70 g/ha (Triticum aestivum, TRZAS wheat, spring (crop), 70 g ai/ha, read-out: Visual Growth Reduction (%) 21 Days After Application TRZAS) was 85 to 94% and the “Visual Growth Reduction (%) 21 Days After Application VERPE” value (VERPE bird's-eye speedwell (veronica persica), 17.5 g ai/ha) was “E (45-59)”. The “Visual Growth Reduction (%) 21 Days After Application VERPE” value (VERPE bird's-eye speedwell (veronica persica), 35 g ai/ha) was “D (60-74)”, the “Visual Growth Reduction (%) 21 Days After Application VERPE” value (VERPE bird's-eye speedwell (veronica persica), 70 g ai/ha) was “B (85-94)” and the “GR50 VERPE” value (VERPE bird's-eye speedwell (veronica persica), growth reduction of 50%, probit analysis) was 17 g ai/ha. For the same molecule, the “GR80 VERPE” value (VERPE bird's-eye speedwell (veronica persica), growth reduction of 80%, probit analysis) was 41 g ai/ha, the “GR90 VERPE” value (VERPE bird's-eye speedwell (veronica persica), growth reduction of 90%, probit analysis) was 65 g ai/ha and the pest or weed control at 17.5 g/ha (ALOMY black-grass (Alopecurus myosuroides), 17.5 g ai/ha, read-out: Visual Growth Reduction (%) 21 Days After Application ALOMY) was 30 to 44%. It also gave a pest or weed control at 35 g/ha (ALOMY black-grass (Alopecurus myosuroides), 35 g ai/ha, read-out: Visual Growth Reduction (%) 21 Days After Application ALOMY) of 45 to 59%, a pest or weed control at 70 g/ha (ALOMY black-grass (Alopecurus myosuroides), 70 g ai/ha, read-out: Visual Growth Reduction (%) 21 Days After Application ALOMY) of 60 to 74% and a pest or weed control at 17.5 g/ha (APESV bentgrass (Apera spica-venti), 17.5 g ai/ha, read-out: Visual Growth Reduction (%) 21 Days After Application APESV) of 30 to 44%. The pest or weed control at 35 g/ha (APESV bentgrass (Apera spica-venti), 35 g ai/ha, read-out: Visual Growth Reduction (%) 21 Days After Application APESV) was 60 to 74%, the pest or weed control at 70 g/ha (APESV bentgrass (Apera spica-venti), 70 g ai/ha, read-out: Visual Growth Reduction (%) 21 Days After Application APESV) was 85 to 94% and the pest or weed control at 17.5 g/ha (LOLSS ryegrass, 17.5 g ai/ha, read-out: Visual Growth Reduction (%) 21 Days After Application LOLSS) was 45 to 59%. The pest or weed control at 35 g/ha (LOLSS ryegrass, 35 g ai/ha, read-out: Visual Growth Reduction (%) 21 Days After Application LOLSS) was 60 to 74%, the pest or weed control at 70 g/ha (LOLSS ryegrass, 70 g ai/ha, read-out: Visual Growth Reduction (%) 21 Days After Application LOLSS) was 75 to 84% and the pest or weed control at 17.5 g/ha (SETVI green foxtail (Setaria viridis), 17.5 g ai/ha, read-out: Visual Growth Reduction (%) 21 Days After Application SETVI) was 45 to 59%. For the same molecule, the pest or weed control at 35 g/ha (SETVI green foxtail (Setaria viridis), 35 g ai/ha, read-out: Visual Growth Reduction (%) 21 Days After Application SETVI) was 75 to 84% and the pest or weed control at 70 g/ha (SETVI green foxtail (Setaria viridis), 70 g ai/ha, read-out: Visual Growth Reduction (%) 21 Days After Application SETVI) was 85 to 94%.
